Consider 3 sequences from patent US20060014712A1, “Controlled delivery of therapeutic compounds” (CeMines, Inc., priority 2004, published 2006).

Assay [1] concerns B16. In words: Cell counting after 7 day peptide treatment. The format is cell-based, mouse. The settings on record: CPP mimicking peptides, conc 10 µM, start count 10. As to the method:
(§1) The ability to block interaction of MITF, SOX10 and STAT3 with active transcriptional complex and inhibit proliferation and stimulate apoptosis of melanoma cells were tested on human melanoma cell lines SK-MEL-28 and WM 266-4, and mouse melanoma cell line B16. Methods. Human melanoma cell lines SK-MEL-28 and WM 2664 and mouse melanoma cell line B16 were obtained from the American Tissue Culture Collection (ATCC). Cells were cultured according to recommendations of ATCC (DMEM, 10% FCS, penicillin+streptomycin) and used in experiments after two passages in the laboratory. Cells were grown in 24 well plates, each treatment in triplicates. Cells were plated 16 hours prior treatments started. Peptides were added to the media, and media was changed every day during 7 day experiment. […] Cells were precipitated and resuspended in 100 μl of PBS, and 5 μl were removed for counting

Assay [2] deals with WM 266-4. In words: Apoptosis, Annexin V-Cy3 Apoptosis Kit. It counts as cell-based, human. As to conditions: conc 10 µM. As to the method: Methods. Human melanoma cell lines SK-MEL-28 and WM 2664 and mouse melanoma cell line B16 were obtained from the American Tissue Culture Collection (ATCC). Cells were cultured according to recommendations of ATCC (DMEM, 10% FCS, penicillin+streptomycin) and used in experiments after two passages in the laboratory. Cells were grown in 24 well plates, each treatment in triplicates. Cells were plated 16 hours prior treatments started. Peptides were added to the media, and media was changed every day during 7 day experiment. […] Methods. Human melanoma cell lines SK-MEL-28 and WM 266-4 were obtained from the American Tissue Culture Collection (ATCC) and were cultured according to recommendations of ATCC (DMEM, 10% FCS, penicillin+streptomycin). Human keratinocytes were obtained from Clonetics and cultured according to manufacturers protocol. Cells were used in experiments after two passages in the laboratory. Cells were grown in 24 well plates, each treatment in triplicates. Cells were plated 16 hours prior treatments started. Peptides were added to the media, and media was changed every day during 7 day experiment. […] Apoptosis was analyzed using Biovision Annexin V-Cy3 Apoptosis Kit according to manufacturers protocols.

Assay [3] concerns Dct/Trp2 promoter. In words: Transient CAT assay, Dct/Trp2 proximal promoter-CAT construct in SK-MEL-28. It counts as cell-based, human. The settings on record: CPP concentration 10 μM. As to the method: (§2) SOX10 and MITF interact with the proximal promoter of Dct/Trp2 gene and induces its activity (Ludwig A. et al., FEBS Lett. 556 (1-3):236-244 (2004)). Thus, a Dct/Trp2 proximal promoter reporter construct was used to analyze effect of mimicking peptides on promoter activity using transient CAT assay.
(§3) Methods. Human melanoma cell lines SK-MEL-28 and WM 266-4 were obtained from the American Tissue Culture Collection (ATCC) and were cultured according to recommendations of ATCC (DMEM, 10% FCS, penicillin+streptomycin). Dct/Trp2 proximal promoter-CAT construct (Ludwig et al., supra) was used in all experiments.
(§4) Cells were transfected by using FuGene reagent (Roche Molecular Biochemicals) according to manufacturer's instructions. Freeze-thaw lysates of cells collected 48 h after the transfection were assayed for CAT activity as described (Pothier, F. et al., DNA Cell Biol. 11(1):83-90 (1992)). At least two different DNA preparations were tested for each plasmid. To normalize the transfection efficiencies, cells were cotransfected with pON260 expressing β-galactosidase (Spaete, R. R. and Mocarski, E. S., J. Virol. 54(3):817-24 (1985); Spaete, R. R. and Mocarski, E. S., J. Virol. 56(1):13543 (1985)). All the CAT activities were normalized to total protein and β-galatosidase activity.
(§5) Following transfection, cells were grown in 6 well plates, each treatment in triplicates. Peptides were added to the media and media was changed every day during the 7 day experiment. CPP concentration was 10 μM.

Assay [4] relates to WM 266-4. In words: Cell counting after 7 day peptide treatment. As to conditions: conc 10 µM, start count 10. It counts as cell-based, human. As to the method:
as §1, with “counting Methods. Human melanoma cell lines SK-MEL-28 and WM 266-4 were obtained from the American Tissue Culture Collection (ATCC) and were cultured according to recommendations of ATCC (DMEM, 10% FCS, penicillin+streptomycin). Human keratinocytes were obtained from Clonetics and cultured according to manufacturers protocol. Cells were used in experiments after two passages in the laboratory. Cells were grown in 24 well plates, each treatment in triplicates. Cells were plated 16 hours prior treatments started. Peptides were added to the media, and media was changed every day during 7 day experiment. […] For cell counting, cells were trypsinized (0.25% Trypsin, 2 mM EDTA) in Ca, Mg free PBS. Cells were precipitated and resuspended in 100 μl of PBS, and 5 μl were removed for counting.” for “counting”

Assay [5] has as its system SK-MEL-28. In words: Cell counting after 7 day peptide treatment. The format is cell-based, human. As to conditions: conc 10 µM, start count 10. On the procedure: The ability to block interaction of MITF, SOX10 and STAT3 with active transcriptional complex and inhibit proliferation and stimulate apoptosis of melanoma cells were tested on human melanoma cell lines SK-MEL-28 and WM 266-4, and mouse melanoma cell line B16. Methods. Human melanoma cell lines SK-MEL-28 and WM 2664 and mouse melanoma cell line B16 were obtained from the American Tissue Culture Collection (ATCC). Cells were cultured according to recommendations of ATCC (DMEM, 10% FCS, penicillin+streptomycin) and used in experiments after two passages in the laboratory. Cells were grown in 24 well plates, each treatment in triplicates. Cells were plated 16 hours prior treatments started. Peptides were added to the media, and media was changed every day during 7 day experiment. CPP concentration was 10 μM For cell counting, cells were trypsinized (0.25% Trypsin, 2 mM EDTA) in Ca^+2, Mg^+2 free PBS. Cells were precipitated and resuspended in 100 μl of PBS, and 5 μl were removed for counting Methods. Human melanoma cell lines SK-MEL-28 and WM 266-4 were obtained from the American Tissue Culture Collection (ATCC) and were cultured according to recommendations of ATCC (DMEM, 10% FCS, penicillin+streptomycin). Human keratinocytes were obtained from Clonetics and cultured according to manufacturers protocol. Cells were used in experiments after two passages in the laboratory. Cells were grown in 24 well plates, each treatment in triplicates. Cells were plated 16 hours prior treatments started. Peptides were added to the media, and media was changed every day during 7 day experiment. CPP concentration was 10 μM. For cell counting, cells were trypsinized (0.25% Trypsin, 2 mM EDTA) in Ca, Mg free PBS. Cells were precipitated and resuspended in 100 μl of PBS, and 5 μl were removed for counting.

The subject of assay [6] is B16. In words: Apoptosis, Annexin V-Cy3 Apoptosis Kit. It counts as cell-based, mouse. As to conditions: CPP mimicking peptides, conc 10 µM. On the procedure:
Methods. Human melanoma cell lines SK-MEL-28 and WM 2664 and mouse melanoma cell line B16 were obtained from the American Tissue Culture Collection (ATCC). Cells were cultured according to recommendations of ATCC (DMEM, 10% FCS, penicillin+streptomycin) and used in experiments after two passages in the laboratory. Cells were grown in 24 well plates, each treatment in triplicates. Cells were plated 16 hours prior treatments started. Peptides were added to the media, and media was changed every day during 7 day experiment. CPP concentration was 10 μM Apoptosis was analyzed using Biovision Annexin V-Cy3 Apoptosis Kit according to manufacturers protocols.

Assay [7] relates to Dct/Trp2 promoter. In words: Transient CAT assay, Dct/Trp2 proximal promoter-CAT construct in WM 266-4. As to conditions: CPP concentration 10 μM. It counts as cell-based, human. As to the method: as §2, §3, §4, §5
Assay [8] has as its system SK-MEL-28. In words: WST-1 test (mitochondrial activity). The format is cell-based, human. The settings on record: conc 10 µM, untreated = 1. Background: Tetrazolium dyes change colour on reduction, which living cells bring about.
Assay [9] concerns Human keratinocytes. In words: WST-1 test (mitochondrial activity). It counts as cell-based. The settings on record: keratinocyte; modified peptides; conc 10 µM; untreated = 1. On the procedure: (§6) Methods. Human melanoma cell lines SK-MEL-28 and WM 266-4 were obtained from the American Tissue Culture Collection (ATCC) and were cultured according to recommendations of ATCC (DMEM, 10% FCS, penicillin+streptomycin). Human keratinocytes were obtained from Clonetics and cultured according to manufacturers protocol. Cells were used in experiments after two passages in the laboratory. Cells were grown in 24 well plates, each treatment in triplicates. Cells were plated 16 hours prior treatments started. Peptides were added to the media, and media was changed every day during 7 day experiment. […] WST-1 test was performed to measure mitochondrial activity, which can also be used as a measure of cell number.

Assay [10] deals with Human keratinocytes. In words: Apoptosis, Annexin V-Cy3 Apoptosis Kit. The format is cell-based. The settings on record: keratinocyte, modified peptides, conc 10 µM.
Assay [11] concerns WM 266-4. In words: WST-1 test (mitochondrial activity). It counts as cell-based, human. As to conditions: modified peptides, conc 10 µM, untreated = 1. As to the method: as §6, with “Methods. Human melanoma cell lines SK-MEL-28 and WM 2664 and mouse melanoma cell line B16 were obtained from the American Tissue Culture Collection (ATCC). Cells were cultured according to recommendations of ATCC (DMEM, 10% FCS, penicillin+streptomycin) and used in experiments after two passages in the laboratory. Cells were grown in 24 well plates, each treatment in triplicates. Cells were plated 16 hours prior treatments started. Peptides were added to the media, and media was changed every day during 7 day experiment. […] Methods.” for “Methods.”

Assay [12] has as its system B16 melanoma. In words: Mouse tumor xenograft model, peptide membrane patch on skin melanoma. As to conditions: patch immersed in 100 μM peptide solution, start = 100; for tumor size change (%) 1 d: B16 s.c. in C57BL/6 mice. It counts as in vivo. As to the method:
The effect of modified mimicking peptides was analyzed by inducing melanomas in mouse skin by grafting suspension of melanoma cells. […] Tumor diameter was measured 1, 2, 3, 5, 7 days after treatmet started.
Methods. Mouse melanoma cell line B16 was cultured as described above, and approximately 5×10^6 cells were injected subcutaneously into the left and right limbs of three C57BL/6JOIaHsd mice.
Administration. Cellulose membrane was immersed in a solution of peptides (100 μM). Size of tumor was measured 1, 2, 3, 5 and 7 days following patch treatment. At the same time new patch was applied. All experiments were done in triplicates (3 animals per group).

Assay [13] has as its system Human keratinocytes. In words: Cell counting after 7 day peptide treatment. The format is cell-based. As to conditions: keratinocyte, modified peptides, conc 10 µM, start count 10. On the procedure:
Methods. Human melanoma cell lines SK-MEL-28 and WM 266-4 were obtained from the American Tissue Culture Collection (ATCC) and were cultured according to recommendations of ATCC (DMEM, 10% FCS, penicillin+streptomycin). Human keratinocytes were obtained from Clonetics and cultured according to manufacturers protocol. Cells were used in experiments after two passages in the laboratory. Cells were grown in 24 well plates, each treatment in triplicates. Cells were plated 16 hours prior treatments started. Peptides were added to the media, and media was changed every day during 7 day experiment. CPP concentration was 10 μM. For cell counting, cells were trypsinized (0.25% Trypsin, 2 mM EDTA) in Ca, Mg free PBS. Cells were precipitated and resuspended in 100 μl of PBS, and 5 μl were removed for counting.

Setting [14] is: modified (inhibitor/MMP2, MMP9 site) peptides.

As to “RPKKRKVRRRKMQQLEQMLTALDQMRRSIVSELAGLLS [STAT3-int1]”, the “Cell Count 7 d” value in [1] turned out to be 59; in assay [4] (CPP mimicking peptides) it was 34; in assay [5] (CPP mimicking peptides), 40. For the same sequence, the “Apoptosis 7 d/%” value in assay [2] (CPP mimicking peptides) was determined as 10%; in [6], 28%. In addition, the “Dct/Trp2 promoter activity (CAT assay)” value in assay [3] and in [7] was “do not have significant effect” each time. The “WST-1 7 d” value in assay [8] (CPP mimicking peptides) is 0.79.
Regarding “TTGGSSPQGLEAKRPKKRKVRRRKMQQLEQMLTALDQMRRSIVSELAGLLS [STAT3-int1M]”, in assay [9], the “WST-1 7 d” value was 1. Further, the “Apoptosis 7 d/%” value in [10] is given as 2%. Further, the “Apoptosis 7 d/%” value in assay [2] (modified peptides) stood at 13%. This sequence came in with a WST-1 7 d in [11] of 0.91. The “Cell Count 7 d” value in assay [5] (setting [14]) came out at 42. In addition, the “WST-1 7 d” value in [8] (modified peptides) amounted to 0.84. Moreover, in assay [12], the “tumor size change (%) 1 d” value amounted to 109%, the “tumor size change (%) 2 d” value came to 124%, the “tumor size change (%) 3 d” value was 154% and the “tumor size change (%) 5 d” value came out at 181%. For the same sequence, the “tumor size change (%) 7 d” value in [12] is recorded as 217%. The “Cell Count 7 d” value in assay [13] was 41.
As for “TTGGSSPQGLEAKRPKKRKVRRRVKRPMNAFMVWAQAARRKLADQY [SOX10-int1M]”, the WST-1 7 d in [9] is 0.93. Also, the “Apoptosis 7 d/%” value in assay [10] is listed as 6%. Also, the “Cell Count 7 d” value in assay [4] (modified peptides) stood at 22. In [11], the “WST-1 7 d” value is 0.7. The “Cell Count 7 d” value in assay [5] (setting [14]) was determined as 35. In addition, the WST-1 7 d in [8] (modified peptides) was determined as 0.72. In assay [12], the “tumor size change (%) 1 d” value was 111%, the “tumor size change (%) 2 d” value stood at 127%, the “tumor size change (%) 3 d” value is 146% and the “tumor size change (%) 5 d” value is given as 171%. In addition, in [12], the “tumor size change (%) 7 d” value stood at 224%. Moreover, the “Cell Count 7 d” value in [13] worked out at 37.
